Legend:
[1] = tested on: 60 different cancer cell lines; assay: NCI screen against 60 cancer cell lines, overall; format: cell-based; settings: single concentration 10^−5 M
Description: The cytotoxic activity of nortopsintin analogs (4a-4j) was determined by the national cancer institute (NCI, Bethesda, Maryland, USA) against 60 different cancer cell lines at a single concentration of (10^-5 M). For the determination of IC50 value, we used MTT assay kit (Sigma) according to the manufacturer's protocol. HCT-116 cells were seeded into a 96-well plate at a concentration of 20,000 cells/well. After 24 h, the media was aspirated and replaced with serum-free media containing serial dilutions of the 4i compound. […] The percentage of cytotoxicity was calculated using the following equation: % Cytotoxicity = [1 - ([…])] × 100.

CDK6 gene expression = assay: Gene expression by quantitative real-time PCR, CDK6; format: cell-based, human; settings: IC50 dose, 48 h, normalized to GAPDH, vs control
Description: (§1) The cells were seeded in a six-well plate at a concentration of 3 × 10^5 cells/well. After a 24 h incubation, the IC50 dose of active compound 4i was applied to each well for 48 h. The cells were collected and centrifuged at 2500 rpm for 15 min at 4 °C. The total RNA isolation kit (RNeasy extraction kit—QIAGEN) was used to isolate RNA according to the manufacturer’s instructions.
(§2) Gene expression analysis by quantitative real-time PCR. The levels of gene expression of CDK2, CDK4 and CDK6 were determined using iScript One-Step RT-PCR kit with SYBR Green (BIORAD) according to the manufacturer protocol. The sequences of the used primers are illustrated in Table 4. The genes expression was normalized to GAPDH as the housekeeping gene. The protocol used for cDNA synthesis was: 10 min at 50 °C, iScript Reverse transcriptase inactivation: 5 min at 95 °C and PCR cycling and detection (30 to 45 cycles): 10 s at 95 °C and 30 s at 55 °C to 60 °C.

CDK4 gene expression = assay: Gene expression by quantitative real-time PCR, CDK4; format: cell-based, human; settings: IC50 dose, 48 h, normalized to GAPDH, vs control
Description: as §1, §2

SF-268 = assay: NCI 60 cell line screen; format: cell-based; settings: SF-268, CNS Cancer; single concentration 10^−5 M
How it was run: (§3)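 Each of the sixty NCI cancer lines was challenged with compound at 10^-5 M, a single dose, for cytotoxicity evaluation.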

PC-3 = assay: NCI 60 cell line screen; format: cell-based; settings: PC-3, Prostate Cancer; single concentration 10^−5 M
How it was run: as §3

SF-295 = assay: NCI 60 cell line screen; format: cell-based; settings: SF-295, CNS Cancer; single concentration 10^−5 M
How it was run: as §3

U251 = assay: NCI 60 cell line screen; format: cell-based; settings: U251, CNS Cancer; single concentration 10^−5 M
How it was run: as §3

MDA-MB-468 = assay: NCI 60 cell line screen; format: cell-based; settings: MDA-MB-468, Breast Cancer; single concentration 10^−5 M
How it was run: as §3

NCI-H522 = assay: NCI 60 cell line screen; format: cell-based; settings: NCI-H522, Non-Small Cell Lung Cancer; single concentration 10^−5 M
How it was run: as §3

SK-MEL-28 = assay: NCI 60 cell line screen; format: cell-based; settings: SK-MEL-28, Melanoma; single concentration 10^−5 M
How it was run: as §3

LOX IMVI = assay: NCI 60 cell line screen; format: cell-based; settings: Melanoma, single concentration 10^−5 M
How it was run: as §3

TK-10 = assay: NCI 60 cell line screen; format: cell-based; settings: TK-10, Renal Cancer; single concentration 10^−5 M
How it was run: as §3

UACC-62 = assay: NCI 60 cell line screen; format: cell-based; settings: UACC-62, Melanoma; single concentration 10^−5 M
How it was run: as §3

OVCAR-4 = assay: NCI 60 cell line screen; format: cell-based; settings: OVCAR-4, Ovarian Cancer; single concentration 10^−5 M
How it was run: as §3

MDA-MB-435 = assay: NCI 60 cell line screen; format: cell-based; settings: MDA-MB-435, Melanoma; single concentration 10^−5 M
How it was run: as §3

HS 578T = assay: NCI 60 cell line screen; format: cell-based; settings: Breast Cancer, single concentration 10^−5 M
How it was run: as §3

UACC-257 = assay: NCI 60 cell line screen; format: cell-based; settings: UACC-257, Melanoma; single concentration 10^−5 M
How it was run: as §3

OVCAR-3 = assay: NCI 60 cell line screen; format: cell-based; settings: OVCAR-3, Ovarian Cancer; single concentration 10^−5 M
How it was run: as §3

UO-31 = assay: NCI 60 cell line screen; format: cell-based; settings: UO-31, Renal Cancer; single concentration 10^−5 M
How it was run: as §3

DU-145 = assay: NCI 60 cell line screen; format: cell-based; settings: DU-145, Prostate Cancer; single concentration 10^−5 M
How it was run: as §3

SR = assay: NCI 60 cell line screen; format: cell-based; settings: Leukemia, single concentration 10^−5 M
How it was run: as §3

HCT-15 = assay: NCI 60 cell line screen; format: cell-based; settings: HCT-15, Colon Cancer; single concentration 10^−5 M
How it was run: as §3

BT-549 = assay: NCI 60 cell line screen; format: cell-based; settings: BT-549, Breast Cancer; single concentration 10^−5 M
How it was run: as §3

NCI-H23 = assay: NCI 60 cell line screen; format: cell-based; settings: NCI-H23, Non-Small Cell Lung Cancer; single concentration 10^−5 M
How it was run: as §3

RPMI-8226 = assay: NCI 60 cell line screen; format: cell-based; settings: RPMI-8226, Leukemia; single concentration 10^−5 M
How it was run: as §3

CDK4/Cyclin D3 = CDK4/Cyclin D3 (Homo sapiens, UniProt P11802); assay: Cyclin dependent kinase enzymatic activity assay (ADP-Glo); format: biochemical
Description: (§4) ADP-Glo™ Kinase Assay kit (Promega, USA) was used for the enzymatic activity analysis according to the manufacturer’s instructions. In brief, to each well we added 1 μl of inhibitor, 2 μl of each cyclin dependent kinase enzymes, and 2 μl of substrate/ATP mix and incubated at room temperature for 60 min. After that 5 μl of ADP‐Glo™ reagent was added and incubated at room temperature for 40 min. 10 μl of kinase detection reagent was added and incubated at room temperature for 30 min, then the luminescence was measured.

CDK2/Cyclin E1 = CDK2/Cyclin E1 (Homo sapiens, UniProt P24941); assay: as above; format: biochemical
Description: as §4

CDK6/Cyclin D3 = CDK6/Cyclin D3 (Homo sapiens, UniProt Q00534); assay: as above; format: biochemical
Description: as §4

CDK2 gene expression = assay: Gene expression by quantitative real-time PCR, CDK2; format: cell-based, human; settings: IC50 dose, 48 h, normalized to GAPDH, vs control
Description: as §1, §2

Sequence of CDK4/Cyclin D3 (P11802 whole entry): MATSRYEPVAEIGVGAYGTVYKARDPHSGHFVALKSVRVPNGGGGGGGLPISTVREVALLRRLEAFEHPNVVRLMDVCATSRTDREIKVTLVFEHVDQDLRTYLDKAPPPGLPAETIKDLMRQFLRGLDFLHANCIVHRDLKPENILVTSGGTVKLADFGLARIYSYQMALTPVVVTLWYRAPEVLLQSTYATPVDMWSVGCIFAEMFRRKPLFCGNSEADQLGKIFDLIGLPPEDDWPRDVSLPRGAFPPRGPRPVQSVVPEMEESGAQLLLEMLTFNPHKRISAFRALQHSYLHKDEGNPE
Sequence of CDK4/Cyclin D3 (P30281 whole entry partner): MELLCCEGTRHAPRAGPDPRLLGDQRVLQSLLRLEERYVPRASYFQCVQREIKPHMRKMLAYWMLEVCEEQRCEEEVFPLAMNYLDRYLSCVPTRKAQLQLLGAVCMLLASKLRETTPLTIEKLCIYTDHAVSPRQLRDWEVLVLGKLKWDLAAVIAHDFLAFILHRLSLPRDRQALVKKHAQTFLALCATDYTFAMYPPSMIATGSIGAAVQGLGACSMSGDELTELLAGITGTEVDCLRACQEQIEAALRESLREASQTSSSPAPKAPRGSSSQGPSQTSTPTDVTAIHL
Sequence of CDK6/Cyclin D3 (Q00534 whole entry): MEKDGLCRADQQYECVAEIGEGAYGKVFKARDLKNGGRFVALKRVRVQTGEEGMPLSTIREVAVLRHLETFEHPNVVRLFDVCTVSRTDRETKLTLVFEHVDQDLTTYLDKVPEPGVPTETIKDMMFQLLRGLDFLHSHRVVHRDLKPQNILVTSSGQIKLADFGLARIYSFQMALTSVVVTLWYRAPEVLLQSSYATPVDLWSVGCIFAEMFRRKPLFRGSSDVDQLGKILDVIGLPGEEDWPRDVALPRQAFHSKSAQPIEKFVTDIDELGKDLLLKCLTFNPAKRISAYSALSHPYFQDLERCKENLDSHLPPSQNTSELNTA
Sequence of CDK6/Cyclin D3 (P30281 whole entry partner): as the sequence (P30281 whole entry partner) above

CN(C)c1ccc(-c2cc(-c3c[nH]c4ccccc34)nc(-c3c[nH]c4ccccc34)c2C#N)cc1 [4i]
cytotoxic / antiproliferative activity over the panel [1]: highest level of cytotoxic activity
Relative gene expression of CDK6 (CDK6 gene expression): significantly suppress the expression
Relative gene expression of CDK4 (CDK4 gene expression): significantly suppress the expression
Growth % (SF-268): 96.47%
Growth % (PC-3): 89.56%
Growth % (SF-295): 79.83%
Growth % (U251): 92.50%
Growth % (MDA-MB-468): 81.79%
Growth % (NCI-H522): 93.15%
Growth % (SK-MEL-28): 101.89%
Growth % (LOX IMVI): 70.02%
Growth % (TK-10): 107.28%
Growth % (UACC-62): 85.78%
Growth % (OVCAR-4): 95.26%
Growth % (MDA-MB-435): 81.62%
Growth % (HS 578T): 104.13%
Growth % (UACC-257): 101.12%
Growth % (OVCAR-3): 91.03%
Growth % (UO-31): 72.88%
Growth % (DU-145): 99.65%
Growth % (SR): 32.38%
Growth % (HCT-15): 44.65%
Growth % (BT-549): 103.60%
Growth % (NCI-H23): 88.40%
Growth % (RPMI-8226): 69.39%
IC50 (CDK4/Cyclin D3): 265 nM
IC50 (CDK2/Cyclin E1): 658 nM
IC50 (CDK6/Cyclin D3): 98 nM
Relative gene expression of CDK2 (CDK2 gene expression): significantly suppress the expression

Reference: PMC11530689, “Anti colorectal cancer activity and in silico studies of novel pyridine nortopsentin analog as cyclin dependent kinase 6 inhibitor” (Scientific Reports, 2024)
